The source of these data is ChEMBL document CHEMBL3045748, “A novel and eco-friendly procedure for the synthesis of some pyrazolo-thiadiazolo-pyrimidinones and its in vitro anti-bacterial activity” (2012).

Type in all cases: functional
Holding throughout (conditions): read-out: DIZ

In one experiment the test system is Bacillus subtilis. The experiment in a line: Antibacterial activity against Bacillus subtilis at 50 ug after 18 hr by Kirby-Bauer's disk diffusion assay.
A further experiment deals with Staphylococcus aureus. The experiment is described as follows: Antibacterial activity against Staphylococcus aureus at 50 ug after 18 hr by Kirby-Bauer's disk diffusion assay. A general note: In agar diffusion tests the substance spreads into inoculated agar from a disc or well.
In the next experiment the test system is Escherichia coli. The experiment is described as follows: Antibacterial activity against Escherichia coli at 50 ug after 18 hr by Kirby-Bauer's disk diffusion assay.
The next experiment relates to Klebsiella. The experiment in a line: Antibacterial activity against Klebsiella at 50 ug after 18 hr by Kirby-Bauer's disk diffusion assay.

For `O=c1c2cnn(-c3ccccc3)c2nc2sc(CNCc3ccco3)nn12`, the zone of inhibition at 50 µg/disc with Bacillus subtilis was determined as 18.5 mm; in the experiment on Staphylococcus aureus, 20 mm; in the experiment on Escherichia coli, 8.5 mm; in the experiment on Klebsiella, 13 mm.

With `O=c1c2cnn(-c3ccccc3)c2nc2sc(CN3CCOCC3)nn12`, the zone of inhibition at 50 µg/disc in the experiment on Bacillus subtilis turned out to be 7 mm; in the experiment with Staphylococcus aureus, 7.5 mm; in the experiment with Escherichia coli it was 9 mm; in the experiment on Klebsiella, 14.5 mm.

Regarding `O=c1c2cnn(-c3ccccc3)c2nc2sc(CNc3ccccc3)nn12`, the zone of inhibition at 50 µg/disc with Bacillus subtilis amounted to 14 mm; in the experiment on Staphylococcus aureus, 14.5 mm; in the experiment on Escherichia coli it was 10.5 mm; with Klebsiella it was 12.5 mm.

As for `Cc1cccc(NCc2nn3c(=O)c4cnn(-c5ccccc5)c4nc3s2)c1`, the zone of inhibition at 50 µg/disc in the experiment with Bacillus subtilis was 17 mm; in the experiment with Staphylococcus aureus, 16.5 mm; in the experiment with Escherichia coli, 9.5 mm; with Klebsiella it was 12 mm.

On to `COc1ccc(NCc2nn3c(=O)c4cnn(-c5ccccc5)c4nc3s2)cc1`, for which the zone of inhibition at 50 µg/disc in the experiment on Bacillus subtilis came out at 15.5 mm; with Staphylococcus aureus it was 15.5 mm; with Escherichia coli, 11.5 mm; with Klebsiella, 14 mm.

For the compound `CNCc1nn2c(=O)c3cnn(-c4ccccc4)c3nc2s1`, the zone of inhibition at 50 µg/disc with Bacillus subtilis amounted to 6.5 mm; in the experiment with Staphylococcus aureus, 13.5 mm; in the experiment with Escherichia coli, 11 mm; with Klebsiella, 11.5 mm.

Regarding `CCNCc1nn2c(=O)c3cnn(-c4ccccc4)c3nc2s1`, the zone of inhibition at 50 µg/disc in the experiment with Bacillus subtilis stood at 16 mm; in the experiment with Staphylococcus aureus it was 18.5 mm; with Escherichia coli it was 10.5 mm; in the experiment on Klebsiella, 12 mm.

Regarding `CCCCCCNCc1nn2c(=O)c3cnn(-c4ccccc4)c3nc2s1`, the zone of inhibition at 50 µg/disc with Bacillus subtilis was found to be 20.5 mm; with Staphylococcus aureus it was 17.5 mm; in the experiment on Escherichia coli, 11 mm; in the experiment on Klebsiella, 11.5 mm.

For the compound `CC1(C)S[C@@H]2[C@H](NC(=O)[C@H](N)c3ccccc3)C(=O)N2[C@H]1C(=O)O` [AMPICILLIN], the zone of inhibition at 50 µg/disc amounted to 23.3 mm with Bacillus subtilis, 22.5 mm with Staphylococcus aureus, 18.5 mm in the experiment on Escherichia coli and 24.5 mm in the experiment on Klebsiella.
